The record followed here is US20190374525A1, “TREATMENT OF DIABETES AND ASSOCIATED METABOLIC CONDITIONS WITH EPIGENETIC MODULATORS” (Temple Otorongo LLC, priority 2017, published 2019).

Type in all cases: in vivo
Assay [1] has as its system leptin receptor deficient transgenic mouse model (db/db). In words: blood glucose levels in mouse model of severe type 2 diabetes and obesity. The note with it: for blood glucose levels: mouse model of severe type 2 diabetes and obesity, FIG. 5 (Formula (I), 11 days), FIG. 7 (Formula (II), 19 days or 29-30 days). The procedure:
(§1) Fed blood glucose levels were measured over a period of 28 days. Fasting glucose levels were measured on days 19, 29, and 30. Glucose clearance was measured using the glucose tolerance test on days 29 and 30. Body weight was also measured as compounds may regulate the expression of genes that are involved in obesity.

Assay [2] can be described thus: body weight in mouse model of severe type 2 diabetes and obesity. The note with it: after 9 days of treatment; FIG. 8. The procedure:
as §1

The test system of assay [3] is leptin receptor deficient transgenic mouse model (db/db). Description: liver enzymes (ALT and AST) in blood serum, mouse model of Type 2 diabetes and severe obesity. The note with it: after 29-30 days; FIG. 11.

Each structure is given as a SMILES string.

Consider `O=C(O)CCNc1cc(N2CCc3ccccc3CC2)nc(-c2ccccn2)n1` [Formula (II)], for which the blood glucose levels entry in assay [1] is reported as “significantly decrease blood glucose levels”.

As for `CN(C)c1ccc(C(=O)NCCCCCC(=O)NO)cc1` [Formula (III)], the body weight result in assay [2] is “significantly decrease body weight”.

`O=C(O)c1ccnc(C(=O)O)c1` [Formula (I), 2,4-pyridinedicarboxylic acid]: in assay [3], the “lowering of enzymes (ALT and AST) associated with liver disease measured in blood serum” value is 68%. Further, in assay [1] (after 11 days of treatment, FIG. 5), the “fed and fasting glucose levels” value is “decrease in fed and fasting glucose levels”. The blood glucose levels result in assay [1] is given as “significantly decrease blood glucose levels”.
